From the Kinase Knowledgebase extract (Sharma et al. 2016)

Columns and labels:
[1] = target: PIK3CA (human) (UniProt P42336); assay: Cell-Based Assay
[2] = target: PIK3CA (human) (UniProt P42336); assay: Enzyme Assay
[3] = target: PIK3CD (Human) (UniProt O00329); assay: Enzyme Assay
[4] = target: PIK3CG (human) (UniProt P48736); assay: Enzyme Assay
[5] = target: PIK3CB (Human) (UniProt P42338); assay: Enzyme Assay
Sequence of PIK3CB (Human) (P42338 whole entry, looked up): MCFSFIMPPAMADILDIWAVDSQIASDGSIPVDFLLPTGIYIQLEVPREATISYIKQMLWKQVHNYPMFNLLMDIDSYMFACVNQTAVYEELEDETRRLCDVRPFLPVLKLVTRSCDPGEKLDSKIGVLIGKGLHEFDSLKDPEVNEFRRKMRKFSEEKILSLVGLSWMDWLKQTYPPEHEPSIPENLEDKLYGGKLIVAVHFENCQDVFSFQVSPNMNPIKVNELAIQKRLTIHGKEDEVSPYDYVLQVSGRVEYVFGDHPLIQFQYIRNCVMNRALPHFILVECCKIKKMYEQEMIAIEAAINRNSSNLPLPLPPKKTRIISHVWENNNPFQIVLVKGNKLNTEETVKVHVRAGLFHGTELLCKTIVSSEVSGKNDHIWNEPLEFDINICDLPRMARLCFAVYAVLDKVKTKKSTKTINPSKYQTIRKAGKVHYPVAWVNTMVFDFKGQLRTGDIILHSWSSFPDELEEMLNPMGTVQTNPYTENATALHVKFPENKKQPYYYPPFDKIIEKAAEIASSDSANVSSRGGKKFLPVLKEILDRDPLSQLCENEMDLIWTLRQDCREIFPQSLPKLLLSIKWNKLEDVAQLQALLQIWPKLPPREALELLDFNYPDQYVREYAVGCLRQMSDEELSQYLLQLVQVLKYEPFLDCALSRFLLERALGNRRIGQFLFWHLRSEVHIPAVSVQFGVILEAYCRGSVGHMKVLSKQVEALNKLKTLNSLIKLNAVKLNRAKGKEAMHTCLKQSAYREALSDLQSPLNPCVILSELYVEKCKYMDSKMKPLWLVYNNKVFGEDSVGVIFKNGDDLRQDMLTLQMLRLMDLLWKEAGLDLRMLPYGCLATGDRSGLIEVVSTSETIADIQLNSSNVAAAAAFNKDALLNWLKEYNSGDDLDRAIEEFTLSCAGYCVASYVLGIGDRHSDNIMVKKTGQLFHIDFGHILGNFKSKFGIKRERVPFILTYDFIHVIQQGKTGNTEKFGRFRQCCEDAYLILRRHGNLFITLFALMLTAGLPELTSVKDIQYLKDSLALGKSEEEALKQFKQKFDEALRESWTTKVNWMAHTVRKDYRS

Sequence of PIK3CG (human) (P48736 whole entry, looked up): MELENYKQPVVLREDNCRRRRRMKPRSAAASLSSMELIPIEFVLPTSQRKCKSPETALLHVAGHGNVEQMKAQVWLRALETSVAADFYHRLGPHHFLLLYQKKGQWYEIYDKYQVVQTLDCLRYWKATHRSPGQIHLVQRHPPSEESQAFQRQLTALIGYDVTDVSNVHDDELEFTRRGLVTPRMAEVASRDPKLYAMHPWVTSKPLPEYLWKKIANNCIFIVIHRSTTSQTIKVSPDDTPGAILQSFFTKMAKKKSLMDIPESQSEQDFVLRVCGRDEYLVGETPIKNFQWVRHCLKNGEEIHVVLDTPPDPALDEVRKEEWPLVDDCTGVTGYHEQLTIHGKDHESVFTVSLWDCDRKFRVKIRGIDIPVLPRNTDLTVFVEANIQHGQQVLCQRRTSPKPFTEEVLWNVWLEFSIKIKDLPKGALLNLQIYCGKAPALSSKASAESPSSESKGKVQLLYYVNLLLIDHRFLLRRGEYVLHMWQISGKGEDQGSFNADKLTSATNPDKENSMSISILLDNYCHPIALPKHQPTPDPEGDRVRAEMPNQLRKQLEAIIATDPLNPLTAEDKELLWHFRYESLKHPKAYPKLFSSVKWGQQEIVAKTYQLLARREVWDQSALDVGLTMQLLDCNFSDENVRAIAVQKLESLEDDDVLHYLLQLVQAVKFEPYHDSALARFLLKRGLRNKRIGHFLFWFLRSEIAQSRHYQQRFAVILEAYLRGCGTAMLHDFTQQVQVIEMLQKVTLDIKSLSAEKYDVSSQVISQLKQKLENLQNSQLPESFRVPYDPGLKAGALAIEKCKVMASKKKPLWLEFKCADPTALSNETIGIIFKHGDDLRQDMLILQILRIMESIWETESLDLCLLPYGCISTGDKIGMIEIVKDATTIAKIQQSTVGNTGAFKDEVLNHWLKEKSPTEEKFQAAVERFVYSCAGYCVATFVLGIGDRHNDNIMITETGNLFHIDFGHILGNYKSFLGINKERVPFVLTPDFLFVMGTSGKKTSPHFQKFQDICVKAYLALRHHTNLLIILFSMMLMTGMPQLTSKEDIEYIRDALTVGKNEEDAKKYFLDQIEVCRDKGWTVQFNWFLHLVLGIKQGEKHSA
Sequence of PIK3CD (Human) (O00329 whole entry, looked up): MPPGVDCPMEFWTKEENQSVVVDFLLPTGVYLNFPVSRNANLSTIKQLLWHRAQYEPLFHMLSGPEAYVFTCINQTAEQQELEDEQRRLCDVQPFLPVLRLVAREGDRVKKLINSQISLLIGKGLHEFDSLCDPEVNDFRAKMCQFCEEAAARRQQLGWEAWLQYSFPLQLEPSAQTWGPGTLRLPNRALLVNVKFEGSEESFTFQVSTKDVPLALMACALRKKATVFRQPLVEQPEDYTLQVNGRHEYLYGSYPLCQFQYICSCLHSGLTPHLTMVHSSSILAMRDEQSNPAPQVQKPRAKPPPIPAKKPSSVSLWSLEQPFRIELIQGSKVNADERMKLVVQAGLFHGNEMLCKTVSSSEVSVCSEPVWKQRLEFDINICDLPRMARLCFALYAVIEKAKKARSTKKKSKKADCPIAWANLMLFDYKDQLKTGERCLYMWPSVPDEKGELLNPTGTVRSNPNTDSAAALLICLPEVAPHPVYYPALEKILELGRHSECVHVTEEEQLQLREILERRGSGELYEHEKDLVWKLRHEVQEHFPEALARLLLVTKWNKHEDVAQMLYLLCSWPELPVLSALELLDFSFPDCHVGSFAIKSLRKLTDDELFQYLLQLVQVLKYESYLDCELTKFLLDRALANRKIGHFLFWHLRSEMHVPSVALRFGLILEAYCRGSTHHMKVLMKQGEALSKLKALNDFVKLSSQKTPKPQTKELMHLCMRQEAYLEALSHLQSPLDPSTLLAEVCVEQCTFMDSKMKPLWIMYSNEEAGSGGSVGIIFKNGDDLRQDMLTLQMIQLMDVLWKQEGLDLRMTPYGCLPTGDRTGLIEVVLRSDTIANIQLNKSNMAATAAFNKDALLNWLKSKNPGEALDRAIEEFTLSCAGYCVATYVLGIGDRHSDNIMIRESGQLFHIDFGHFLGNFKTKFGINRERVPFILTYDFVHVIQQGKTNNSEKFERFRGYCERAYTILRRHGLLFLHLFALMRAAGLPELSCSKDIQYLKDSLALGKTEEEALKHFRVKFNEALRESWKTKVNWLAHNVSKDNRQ
Sequence of PIK3CA (human) (P42336 whole entry, looked up): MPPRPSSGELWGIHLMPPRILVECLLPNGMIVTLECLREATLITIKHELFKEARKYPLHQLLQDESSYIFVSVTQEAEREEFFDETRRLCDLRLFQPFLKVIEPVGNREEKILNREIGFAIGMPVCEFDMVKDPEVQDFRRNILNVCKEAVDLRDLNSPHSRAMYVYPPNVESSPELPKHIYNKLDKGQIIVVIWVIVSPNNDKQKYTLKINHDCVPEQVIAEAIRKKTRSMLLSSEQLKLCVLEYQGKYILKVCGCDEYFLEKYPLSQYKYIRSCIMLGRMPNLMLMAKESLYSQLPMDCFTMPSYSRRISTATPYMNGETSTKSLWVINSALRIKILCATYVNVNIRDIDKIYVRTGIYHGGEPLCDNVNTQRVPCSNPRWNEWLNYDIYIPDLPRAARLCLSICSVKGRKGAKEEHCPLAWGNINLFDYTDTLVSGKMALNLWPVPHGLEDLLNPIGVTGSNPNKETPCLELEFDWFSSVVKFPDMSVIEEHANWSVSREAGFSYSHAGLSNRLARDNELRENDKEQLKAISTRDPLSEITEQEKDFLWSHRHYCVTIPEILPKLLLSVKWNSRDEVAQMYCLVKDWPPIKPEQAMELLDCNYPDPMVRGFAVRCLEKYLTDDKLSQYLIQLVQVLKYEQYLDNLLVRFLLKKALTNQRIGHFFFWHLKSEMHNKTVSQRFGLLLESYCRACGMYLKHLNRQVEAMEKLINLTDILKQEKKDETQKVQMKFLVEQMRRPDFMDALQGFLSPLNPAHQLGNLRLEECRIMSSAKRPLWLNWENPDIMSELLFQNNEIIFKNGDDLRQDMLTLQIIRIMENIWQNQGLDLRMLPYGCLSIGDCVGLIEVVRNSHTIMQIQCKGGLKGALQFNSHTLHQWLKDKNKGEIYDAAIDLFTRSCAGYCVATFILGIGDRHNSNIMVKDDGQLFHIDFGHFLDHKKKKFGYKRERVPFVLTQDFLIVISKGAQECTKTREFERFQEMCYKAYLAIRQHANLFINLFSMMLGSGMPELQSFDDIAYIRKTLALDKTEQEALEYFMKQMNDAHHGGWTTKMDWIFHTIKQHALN

IC50 ([1]; pc3) [nM]	IC50 ([1]; t47d) [nM]	IC50 [2] [nM]	IC50 [3] [nM]	IC50 [4] [nM]	IC50 [5] [nM]	SMILES
–	–	> 10000	> 10000	> 10000	> 10000	CN1CCN(S(=O)(=O)c2cnc3ccc(-c4ccc5oc(N)nc5c4)cn23)CC1
–	–	100 to 1000	–	< 100	–	NC1=NC2C=C(c3ccc4oc(N)nc4c3)C=CC2O1 (stereo not drawn)
–	–	–	< 100	–	–	COc1ncc(-c2ccc3ncn(C4CCN(C)CC4)c(=O)c3c2)cc1NS(C)(=O)=O
–	–	> 10000	> 10000	> 10000	> 10000	Nc1nc2cc(-c3ccc4ncc(S(=O)(=O)N5CCOCC5)n4c3)ccc2o1
–	–	< 100	100 to 1000	< 100	< 100	Nc1nc2cc(-c3ccc4ncc(-c5cn[nH]c5)n4n3)ccc2o1
–	–	100 to 1000	> 10000	> 10000	–	COC(=O)N1CCC(N2N=CC3C(N4CCOCC4)=NC(c4ccc5oc(N)nc5c4)=NC32)CC1 (stereo not drawn)
–	–	< 100	> 10000	–	< 100	C[C@H]1CN(c2cnc3ccc(-c4ccc5oc(N)nc5c4)cc3c2)CCN1
–	–	< 100	< 100	< 100	–	Nc1nc2cc(-c3ccc4ncc(N[C@H]5CC[C@H](O)CC5)nc4c3)ccc2o1
–	–	100 to 1000	> 10000	–	–	CN1CCN(C(=O)c2cnn3ccc(-c4ccc5oc(N)nc5c4)cc23)CC1
–	100 to 1000	–	–	100 to 1000	–	Nc1nc2cc(-c3ccc4ncc(C(=O)N5CCC(O)C5)n4c3)ccc2o1 (stereo not drawn)
–	100 to 1000	< 100	100 to 1000	< 100	–	Nc1nc2cc(-c3ccc4ncc(-c5ccncc5)n4c3)ccc2o1
–	–	100 to 1000	> 10000	> 10000	–	CS(=O)(=O)N1CCC(n2cnc3ccc(-c4ccc5oc(N)nc5c4)cc3c2=O)CC1
100 to 1000	–	< 100	< 100	100 to 1000	–	CC1(C)CN(C2CN(C(=O)c3cnc4ccc(-c5ccc6oc(N)nc6c5)cn34)C2)CCN1
–	–	–	–	< 100	–	C[C@H]1CN(c2cnc3ccc(-c4cccc5c(N)nsc45)cc3n2)CCN1

Further lines, the compound ahead of its results:

SMILES	IC50 ([1]; pc3) [nM]	IC50 ([1]; t47d) [nM]	IC50 [2] [nM]	IC50 [3] [nM]	IC50 [4] [nM]	IC50 [5] [nM]
Nc1nc2cc(-c3ccc4nccc(-c5ccncc5)c4c3)ccc2o1	100 to 1000	100 to 1000	< 100	< 100	< 100	–
Nc1nc2cc(-c3ccc4ncc(-c5ccncc5)n4n3)ccc2o1	100 to 1000	100 to 1000	< 100	–	< 100	100 to 1000
Nc1nc2ccc(-c3ccc4nccc(-c5ccncc5)c4c3)cc2s1	–	–	< 100	100 to 1000	100 to 1000	> 10000
Nc1nc2cc(-c3ccc4ncc(C(=O)N[C@H]5CC[C@H](O)CC5)n4c3)ccc2o1	–	–	–	–	< 100	–
Nc1nc2cc(-c3ccc4ncc(C(=O)N5CCC(N6CCC(F)(F)C6)C5)n4c3)ccc2o1 (stereo not drawn)	–	–	100 to 1000	–	–	> 10000
Nc1nc2cc(-c3ccc4ncc(NCCN5CCOCC5)nc4c3)ccc2o1	–	–	< 100	100 to 1000	100 to 1000	100 to 1000
Nc1nc2cc(-c3ccc4ncn(-c5ccncc5)c4c3)ccc2o1	> 10000	–	< 100	–	100 to 1000	–
Nc1nc2cc(-c3ccc4ncc(C(=O)N5C6CCC5COC6)n4c3)ccc2o1	100 to 1000	–	100 to 1000	–	< 100	–
NC1=NC2C=C(c3ccc4nc(N)oc4c3)C=CC2O1 (stereo not drawn)	–	–	100 to 1000	100 to 1000	< 100	–
CC(=O)Nc1cc2ccc(-c3cc(F)c4oc(N)nc4c3)cn2n1	–	–	> 10000	> 10000	–	> 10000
CNc1nsc2cc(-c3ccc4ncc(C(=O)N5CCOCC5)n4c3)ccc12	–	–	> 10000	> 10000	> 10000	> 10000
CN1CCN(n2cnc3ccc(-c4ccc5oc(N)nc5c4)cc3c2=O)CC1	–	–	100 to 1000	> 10000	> 10000	> 10000
Nc1nc2cccc(-c3ccc4nccc(-c5ccncc5)c4c3)c2s1	–	–	< 100	–	–	–
Nc1nc2cc(-c3ccc4ncc(N5CCN(C(=O)C6(N)CCC6)CC5)nc4c3)ccc2o1	–	100 to 1000	–	–	–	–
